Results reported in publication PMC11261597, “Three-Step Enzymatic Remodeling of Chitin into Bioactive Chitooligomers” (Journal of Agricultural and Food Chemistry, 2024).

Molecular target: T1, BsPdaC (Bacillus subtilis, UniProt O34798)
T1 construct: gene pdaC
T1 sequence (O34798 278-467 limits assumed): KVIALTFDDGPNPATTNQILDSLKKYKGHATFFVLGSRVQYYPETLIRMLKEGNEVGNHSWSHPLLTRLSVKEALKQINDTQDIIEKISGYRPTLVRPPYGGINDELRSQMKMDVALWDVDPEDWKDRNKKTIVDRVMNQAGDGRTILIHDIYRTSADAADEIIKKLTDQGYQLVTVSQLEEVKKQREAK
Assay: deacetylation followed by HPLC-MS
Type: biochemical
Conditions: 2 mM substrate, 4 μM enzyme, PBS pH 7.5, 37 °C

SMILES | deacetylation followed by HPLC-MS
CC(=O)N[C@H]1[C@H](O[C@H]2[C@H](O)[C@@H](NC(C)=O)[C@H](O[C@H]3[C@H](O)[C@@H](NC(C)=O)C(O)O[C@@H]3CO)O[C@@H]2CO)O[C@H](CO)[C@@H](O[C@@H]2O[C@H](CO)[C@@H](O[C@@H]3O[C@H](CO)[C@@H](O)[C@H](O)[C@H]3NC(C)=O)[C@H](O)[C@H]2NC(C)=O)[C@@H]1O (some centres unmarked) [CH5] | BsPdaC exhibited an effective deacetylation of standard CH4 and CH5 substrates
CC(=O)N[C@H]1[C@H](O[C@H]2[C@H](O)[C@@H](NC(C)=O)C(O)O[C@@H]2CO)O[C@H](CO)[C@@H](O[C@@H]2O[C@H](CO)[C@@H](O[C@@H]3O[C@H](CO)[C@@H](O)[C@H](O)[C@H]3NC(C)=O)[C@H](O)[C@H]2NC(C)=O)[C@@H]1O (some centres unmarked) [CH4, N,N′,N″,N‴-tetraacetylchitotetraose] | BsPdaC exhibited an effective deacetylation of standard CH4 and CH5 substrates
